In US7786155B2, “Organic compounds” (Novartis AG, priority 2007, dated 2010):

What follows are compounds tested against T1, recombinant human NPY Y2 receptors (Homo sapiens, UniProt P49146) (assay: Scintillation proximity [35S]GTPγS binding assay (inhibition of 0.5 nM NPY-stimulated [35S]GTPγS binding)). Conditions: 10 μM compound, membranes from CHO-C4 cells expressing recombinant human NPY Y2 receptors.
T1 construct: expressed in transfected cells; host or cells: CHO-C4 cells (membrane preparation)
T1 sequence (P49146 1-381): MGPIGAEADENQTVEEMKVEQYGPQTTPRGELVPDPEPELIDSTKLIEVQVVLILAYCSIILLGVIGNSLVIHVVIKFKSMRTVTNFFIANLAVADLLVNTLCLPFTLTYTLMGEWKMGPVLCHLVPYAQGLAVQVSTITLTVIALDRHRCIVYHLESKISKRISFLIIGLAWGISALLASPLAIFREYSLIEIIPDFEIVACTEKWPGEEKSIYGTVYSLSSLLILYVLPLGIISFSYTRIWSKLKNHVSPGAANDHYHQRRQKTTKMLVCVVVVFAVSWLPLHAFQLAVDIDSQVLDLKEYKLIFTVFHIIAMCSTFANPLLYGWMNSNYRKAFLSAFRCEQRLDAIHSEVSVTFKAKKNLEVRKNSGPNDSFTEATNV
Type: biochemical
Experimental: Preparation of Membranes: CHO-C4 cells expressing recombinant human NPY Y2 receptors were used to prepare membranes for the GTPγS assay. Cells were grown to 80-95% confluency on 15-cm (225 cm^2) tissue culture plates. After aspiration of the culture medium, cells were washed twice with 18 ml ice-cold phosphate-buffered saline (PBS), scraped off and suspended in 3 ml ice-cold PBS in pre-cooled centrifuge tubes. The dishes were rinsed with 2 ml ice-old PBS per dish and the washings were combined with the PBS cell suspension from above. Cells pooled from 5-7 dishes were centrifuged for 5 min at 10,000 rpm (12,000 g) in a Sorvall RC5B centrifuge using an SS34 rotor at […]. The cell pellet was resuspended in 5 ml ice-cold buffer (20 mM HEPES, 10 mM EDTA; pH 7.4) by vortexing (2-5 sec), homogenized using a Polytron (step 4 for 20-30 sec), and ice-cold buffer added to 25 ml. The suspension was centrifuged again for 20 min at 18,000 rpm (39,000 g) at 4° C. and the pellet resuspended in 5 ml ice-cold buffer (20 mM HEPES, 0.1 mM EDTA; pH 7.4) by vortexing (2-5 sec), homogenized with a Polytron (step 4 for 10 sec), and ice-cold buffer added to 25 ml. The suspension was centrifuged a third time for 20 min at 18,000 rpm (39,000 g) at 4° C. The pellet was resuspend in 1 ml ice-cold buffer (20 mM Hepes, 0.1 mM EDTA; pH 7.4) by vortexing (5-8 sec). Two to five resuspended pellets were combined and homogenized using a Polytron (step 4 for 15-25 sec). A small aliquot (20-50 μl) was removed for protein determination by the Coomassie Plus Protein Assay Reagent (Pierce) using BSA as standard. The membrane suspension was aliquoted in precooled (on dry ice) Eppendorf tubes (0.25-1 ml/tube affording approximately 0.5-2 mg of membrane protein/tube). The pellets were frozen and stored at −80° C.
Scintillation proximity [^35S]GTPγS binding assay: Frozen membranes from CHO-C4 cells expressing recombinant human NPY Y2 receptors (2 mg for four 96-well plates) were thawed on ice. Thawed membranes were pipetted into 10 ml of assay buffer (20 mM HEPES, 10 mM MgCl2, 100 mM NaCl, pH 7.4) and homogenized briefly using a Polytron. The final assay mixture was prepared in 96-well microtiter plates (Isoplate Wallac, Perkin Elmer). The composition of the assay mixtures in a final volume of 250 μl per well was as follows: 20 mM HEPES, 10 mM MgCl2, 100 mM NaCl, pH 7.4, 30 μM GDP, 1 mg/ml BSA (added fresh), 5 μg membrane protein, 1.5 mg Wheatgerm agglutinin SPA beads (Amersham), 0.45 nM [^35S]GTPγS (Amersham, SJ1308, 1000 Ci/mmol, stabilized solution), and the test compounds (agonists and/or antagonists) at the appropriate concentrations. The samples were incubated at room temperature for 90 min by shaking, after which the SPA beads were sedimented by centrifugation in an Eppendorf 5804 centrifuge at 2700 rpm for 10 min at room temperature. After 60 min the plates were counted in a TopCount (Canberra). Basal [^35S]GTPγS binding was measured in the absence of agonist (NPY). Non-specific binding was measured in the presence of excess (10 μM) unlabelled GTPγS (Sigma). Nonspecific binding never exceeded 10% of basal binding and was thus not subtracted from the experimental data. Antagonists were tested for the inhibition of 0.5 nM NPY-stimulated [^35S]GTPγS binding. Antagonist inhibition curves were analyzed by non-linear regression using GraphPad Prism software (Version 4.0, GraphPad Software Inc., CA, USA).
Antagonistic activity of compounds of the present invention was examined by the Scintillation proximity [^35S]GTPγS binding assay as described above (inhibition of 0.5 nM NPY-stimulated [^35S]GTPγS binding). The table below represents percentages of inhibition at a concentration of 10 μM.

| Structure (SMILES) | [%] inhibiton at 10 μM [%] |
| --- | --- |
| CCCC1(c2ccc(F)cc2)N=C(C)N(CC(=O)c2ccc(NC(=O)C3CCOC3)cc2F)C1=O (stereo not drawn) [Compound 14, Tetrahydro-furan-3-carboxylic acid (34-fluoro-4-{2-[4-(4-fluoro-phenyl)-2-methyl-5-oxo-propyl-4,5-dihydro-imidazol-1-yl]-acetyl}-phenyl)-amide] | 39 |
| CCCC1(c2ccc(F)cc2)N=C(C)N(CC(=O)c2ccc(NC(=O)Cc3c(C)noc3C)cc2F)C1=O (racemic) [Compound 17] | 87 |
| COc1ccccc1CC(=O)Nc1ccc(C(=O)CN2C(=O)C(c3ccccc3)(c3ccccc3)N=C2C)cc1 [Compound 30, 2-(2-Methoxy-phenyl)-N-{4-[2-(2-methyl-5-oxo-4,4-phenyl-4,5-dihydro-imidazol-1yl)-acetyl]-phenyl}-acetamide] | 78 |
| CCCC1(c2ccccc2)N=C(C)N(CC(=O)c2ccc(NC(=O)C(CC)CC)cc2)C1=O (single isomer, unassigned; (+)) [Compound 25] | 92 |
| CCCC1(c2ccc(F)cc2)N=C(C)N(CC(=O)c2ccc(NC(=O)Cc3c(C)noc3C)cc2F)C1=O (single isomer, unassigned; (+)) [Compound 36, (+)-2-(3,5-Dimethyl-isoxazol-4-yl)-N-(3-fluoro-4-{2-[4-(4-fluoro-phenyl)-2-methyl-5-oxo-4-propyl-4,5-dihydro-imidazol-1-yl]-acetyl}-phenyl)-acetamide] | 75 |
| CCCC1(c2ccc(F)cc2)N=C(C)N(CC(=O)c2ccc(N(C)C(=O)N(C)c3c(C)noc3C)cc2F)C1=O (racemic) [Compound 18] | 70 |

Same assay, conditions: 10 μM compound, membranes from CHO-C4 cells expressing recombinant human NPY Y2 receptors, read-out: [%] inhibiton at 10 μM

| Structure (SMILES) | inhibition at 10 µM [%] |
| --- | --- |
| CCCC1(c2ccc(F)cc2)N=C(C)N(CC(=O)c2ccc(NC(=O)Cc3c(C)noc3C)cc2F)C1=O (single isomer, unassigned; (-)) [Compound 35, (−)-2-(3,5-Dimethyl-isoxazol-4-yl)-N-(3-fluoro-4-{2-[4-(4-fluoro-phenyl)-2-methyl-5-oxo-4-propyl-4,5-dihydro-imidazol-1-yl]-acetyl}-phenyl)acetamide] | 92 |
| CCC(CC)C(=O)Nc1ccc(C(=O)CN2C(=O)C(c3ccccc3)(c3ccccc3)N=C2C)cc1 [Compound 34, 2-Ethyl-N-{4-[2-(2-methyl-5-oxo-4,4-diphenyl-4,5-dihydro-imidazol-1-yl)-acetyl]-phenyl}-butyramide] | 65 |
| CCCC1(c2ccc(F)cc2)N=C(C)N(CC(=O)c2ccc(NC(=O)C(CC)CC)cc2)C1=O (racemic) [Compound 9, (+/−)-2-Ethyl-N-(4-{2-[4-(4-fluoro-phenyl)-2-methyl-5-oxo-4-propyl-4,5-dihydro-imidazol-1-yl]-acetyl}-phenyl)-butyramide] | 68 |
| CCCC1(c2ccc(F)cc2)N=C(C)N(CC(=O)c2ccc(NC(=O)Nc3c(C)noc3C)cc2F)C1=O (racemic) [Compound 11, (+/−)-1-(3,5-Dimethyl-isoxazol-4-yl)-3-(3-fluoro-4-{2-[4-(4-fluoro-phenyl)-2-methyl-5-oxo-4-propyl-4,5-dihydro-imidazol-1-yl]acetyl}-phenyl)-urea] | 96 |
| CCC(CC)C(=O)Nc1ccc(C(=O)CN2C(=O)C(c3ccccc3)(c3ccccc3)N=C2C)c(F)c1 [Compound 33, 2-Ethyl-N-{3-fluoro-4-[2-(2-methyl-5-oxo-4,4-diphenyl-4,5-dihydro-imidazol-1-yl)-acetyl]-phenyl}-butyramide] | 60 |
| CC1=NC(c2ccccc2)(c2ccccc2)C(=O)N1CCc1ccc(NC(=O)CC(C)C)cc1 [Compound 5, 3-Methyl-N-{4-[2-(2-methyl-5-oxo-4,4-diphenyl-4,5-dihydro-imidazol-1-yl)-ethyl]-phenyl}-butyramide] | 35 |
| CC1=NC(c2ccccc2)(c2ccccc2)C(=O)N1CC(=O)c1ccc(NC(=O)Nc2c(C)noc2C)cc1 [Compound 27, 1-(3,5-Dimethyl-isoxazol-4-yl)-3-{4-[2-(2-methyl-5-oxo-4,4-diphenyl-4,5-dihydro-imidazol-1-yl)-acetyl]-phenyl}-urea] | 100 |
| CCCC1(c2ccccc2)N=C(C)N(CC(=O)c2ccc(NC(=O)Nc3c(C)noc3C)cc2)C1=O (racemic) [Compound 6, (+/−)-1-(3,5-Dimethyl-isoxazol-4-yl)-3-{4-[2-(2-methyl-5-oxo-4-phenyl-4-propyl-4,5-dihydro-imidazol-1-yl)-acetyl]-phenyl}-urea] | 99 |
| CCCC1(c2ccccc2)N=C(C)N(CC(=O)c2ccc(NC(=O)C3CCOC3)cc2F)C1=O (stereo not drawn) [Compound 15, Tetrahydro-furan-3-carboxylic acid {3-fluoro-4-[2-(2-methyl-5-oxo-4-phenyl-4-propyl-4,5-dihydro-imidazol-1yl)-acetyl]-phenyl}-amide] | 42 |
| CCCC1(c2ccccc2)N=C(C)N(CC(=O)c2ccc(NC(=O)Nc3c(C)noc3C)cc2F)C1=O (racemic) [Compound 10, (+/−)-1-(3,5-Dimethyl-isoxazol-4-yl)-3-{3-fluoro-4-[2-(2-methyl-5-oxo-4-phenyl-4-propyl-4,5-dihydro-imidazol-1-yl)-acetyl]-phenyl}-urea] | 97 |
| CC1=NC(c2ccccc2)(c2ccccc2)C(=O)N1CC(=O)c1ccc(C(=O)NC(C)C(C)C)cc1 (racemic) [Compound 1, (+/−)-N-(1,2-Dimethyl-propyl)-4-[2-(2-methyl-5-oxo-4,4-diphenyl-4,5-dihydro-imidazol-1-yl)-acetyl]-benzamide] | 34 |
| CCC(CC)C(=O)Nc1ccc(CCN2C(=O)C(c3ccccc3)(c3ccccc3)N=C2C)cc1 [Compound 4, 2-Ethyl-N-{4-[2-(2-methyl-5-oxo-4,4-diphenyl-4,5-dihydro-imidazol-1-yl)ethyl]-phenyl}-butyramide] | 46 |
| COc1ccccc1C(=O)Nc1ccc(C(=O)CN2C(=O)C(c3ccccc3)(c3ccccc3)N=C2C)cc1 [Compound 23, 2-Methoxy-N-{4-[2-(2-methyl-5-oxo-4,4-diphenyl-4,5-dihydro-imidazol-1-yl)-acetyl]-phenyl}-benzamide] | 46 |
| CCC(CC)C(=O)Nc1ccc(C(O)CN2C(=O)C(c3ccccc3)(c3ccccc3)N=C2C)cc1 (racemic) [Compound 26, (+/−)-2-Ethyl-N-{4-[1-hydroxy-2-(2-methyl-5-oxo-4,4-diphenyl-4,5-dihydro-imidazol-1-yl)-ethyl]-phenyl}-butyramide] | 45 |
| CC1=NC(c2ccccc2)(c2ccccc2)C(=O)N1CC(=O)c1ccc(NC(=O)Cc2ccccc2C)cc1 [Compound 22, N-{4-[2-(2-Methyl-5-oxo-4,4-diphenyl-4,5-dihydro-imidazol-1-yl)-acetyl]-phenyl}-2-o-tolyl-acetamide] | 55 |
